Source: patent publication US9663513B2, “Pyrimidine PDE10 inhibitors” (Merck Sharp & Dohme Corp., priority 2012, dated 2017)
pKi: −log10 of the molar value.

Target: human PDE10A2 (Homo sapiens (Human), UniProt Q9Y233)
Assay: PDE10 fluorescence polarization (IMAP FP) inhibition assay
Type: biochemical
Settings: human PDE10A2 from transfected AD293 cells; FAM-labeled cAMP 50 nM; apparent inhibition constant; read-out: PDE10A Ki
Summary of the method: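 Cytoplasmic lysate of AD293 cells transiently expressing human PDE10A2 (enzyme level giving 20% conversion) incubated with 50 nM FAM-cAMP in pH 7.2 Tris/MgCl2 buffer, 30 min at room temperature. IMAP binding solution added, FP read after ≥1 h; 10-point 3-fold compound titrations fitted to a four-parameter equation.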

human PDE10A2, sequence (Q9Y233 267-1055): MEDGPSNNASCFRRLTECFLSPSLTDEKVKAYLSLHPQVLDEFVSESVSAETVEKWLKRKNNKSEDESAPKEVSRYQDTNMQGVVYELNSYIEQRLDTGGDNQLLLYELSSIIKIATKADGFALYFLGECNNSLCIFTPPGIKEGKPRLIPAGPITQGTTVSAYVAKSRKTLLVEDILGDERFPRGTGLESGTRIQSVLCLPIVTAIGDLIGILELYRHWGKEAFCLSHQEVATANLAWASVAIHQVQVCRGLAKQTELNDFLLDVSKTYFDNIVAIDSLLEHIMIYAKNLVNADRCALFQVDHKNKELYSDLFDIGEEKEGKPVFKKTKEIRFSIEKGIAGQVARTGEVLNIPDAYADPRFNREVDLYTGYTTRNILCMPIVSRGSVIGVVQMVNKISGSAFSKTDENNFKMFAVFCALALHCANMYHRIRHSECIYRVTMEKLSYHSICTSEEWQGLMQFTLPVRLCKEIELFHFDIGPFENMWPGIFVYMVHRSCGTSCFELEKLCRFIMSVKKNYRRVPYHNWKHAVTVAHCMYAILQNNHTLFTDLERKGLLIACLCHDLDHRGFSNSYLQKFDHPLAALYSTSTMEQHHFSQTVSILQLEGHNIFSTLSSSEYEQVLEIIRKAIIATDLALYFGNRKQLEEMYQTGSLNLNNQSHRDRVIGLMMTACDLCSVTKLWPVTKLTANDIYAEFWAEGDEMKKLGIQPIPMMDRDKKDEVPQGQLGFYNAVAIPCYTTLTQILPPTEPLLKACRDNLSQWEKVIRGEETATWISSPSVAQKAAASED

| Compound | pKi |
| --- | --- |
| COc1ccc([C@H]2C[C@@H]2COc2nc(C)ncc2-c2cnsc2)nc1 [Example 73, 4-(4-(((1S,2S)-2-(5-methoxypyridin-2-yl)cyclopropyl)methoxy)-2-methylpyrimidin-5-yl)isothiazole] | 8.95 |
| COc1ccc([C@H]2C[C@@H]2COc2nc(C)ncc2-c2cn(C)nc2C(F)(F)F)nc1 [Example 82, 4-(((1S,2S)-2-(5-methoxypyridin-2-yl)cyclopropyl)methoxy)-2-methyl-5-(1-methyl-3-(trifluoromethyl)-1H-pyrazol-4-yl)pyrimidine] | 9.70 |
| CCc1ccc([C@@H]2C[C@@H]2COc2nc(C)ncc2[C@H]2CC[C@@H](O)CC2)nc1 [Example 197, (1R,4s)-4-(4-(((1S,2R)-2-(5-ethylpyridin-2-yl)cyclopropyl)methoxy)-2-methylpyrimidin-5-yl)cyclohexanol] | 8.76 |
| Cc1ncc(-c2ccncc2)c(OC[C@H]2C[C@@H]2c2ccc3ccccc3n2)n1 (single isomer, unassigned) [Example 26] | 10.70 |
| CCc1ccc([C@@H]2C[C@@H]2COc2nc(C)ncc2C2CCC(=O)CC2)nc1 [Example 195, 4-(4-(((1S,2R)-2-(5-ethylpyridin-2-yl)cyclopropyl)methoxy)-2-methylpyrimidin-5-yl)cyclohexanone] | 8.46 |
| COc1ccc([C@H]2C[C@@H]2COc2nc(C)ncc2-c2nnn(C)n2)nc1 [Example 235, 4-(((1S,2S)-2-(5-methoxypyridin-2-yl)cyclopropyl)methoxy)-2-methyl-5-(2-methyl-2H-tetrazol-5-yl)pyrimidine] | 7.67 |
| CCC(O)c1ccc(-c2cnc(C)nc2OC[C@H]2C[C@@H]2c2ccc(C)cn2)cn1 (stereo partly drawn) [Example 144, 1-(5-(2-methyl-4-(((1S,2S)-2-(5-methylpyridin-2-yl)cyclopropyl)methoxy)pyrimidin-5-yl)pyridin-2-yl)propan-1-ol] | 9.14 |
| COc1ccc([C@H]2C[C@@H]2COc2nc(C)ncc2-c2ccc(C3(O)CCC3)nc2)nc1 [Example 92, 1-(5-(4-(((1S,2S)-2-(5-methoxypyridin-2-yl)cyclopropyl)methoxy)-2-methylpyrimidin-5-yl)pyridin-2-yl)cyclobutano1] | 9.92 |
| COc1ccc([C@H]2C[C@@H]2COc2nc(C)ncc2[C@H]2CC[C@@H](C(=O)O)CC2)nc1 [Example 217, cis-4-(4-(((1S,2S)-2-(5-Methoxypyridin-2-yl)cyclopropyl)methoxy)-2-methylpyrimidin-5-yl)cyclohexanecarboxylic acid] | 8.28 |
| Cc1ccc(-c2cnc(C)nc2OC[C@H]2C[C@@H]2c2ccc3ccccc3n2)cn1 [Example 42, 2-((1S,2S)-2-((2-methyl-5-(6-methylpyridin-3-yl)pyrimidin-4-yloxy)methyl)cyclopropyl)quinoline] | 10.70 |
| Cc1ccnc([C@H]2C[C@@H]2COc2nc(C)ncc2-c2cn(C)nc2C(C)O)c1 (stereo partly drawn) [Example 160, 1-(1-methyl-4-(2-methyl-4-(((1S,2S)-2-(4-methylpyridin-2-yl)cyclopropyl)methoxy)pyrimidin-5-yl)-1H-pyrazol-3-yl)ethanol] | 8.53 |
| CCc1ccc([C@@H]2C[C@@H]2COc2nc(C)ncc2C2CCC3(CC2)OCCO3)nc1 [Example 194, 4-(((1S,2R)-2-(5-ethylpyridin-2-yl)cyclopropyl)methoxy)-2-methyl-5-(1,4-dioxaspiro[4.5]decan-8-yl)pyrimidine] | 8.53 |
| Cc1ccc([C@H]2C[C@@H]2COc2nc(C)ncc2C2=CCOCC2)nc1 [Example 51, 5-(3,6-dihydro-2H-pyran-4-yl)-2-methyl-4-(((1S,2S)-2-(5-methylpyridin-2-yl)cyclopropyl)methoxy)pyrimidine] | 8.71 |
| Cc1ccc([C@H]2C[C@@H]2COc2nc(C)ncc2-c2cnsc2)nc1 [Example 62, 4-(2-methyl-4-(((1S,2S)-2-(5-methylpyridin-2-yl)cyclopropyl)methoxy)pyrimidin-5-yl)isothiazole] | 8.69 |
| Cc1ccnc(-c2cnc(C)nc2OC[C@H]2C[C@@H]2c2ccc3ccccc3n2)c1 [Example 128, 2-((1S,2S)-2-((2-methyl-5-(4-methylpyridin-2-yl)pyrimidin-4-yloxy)methyl)cyclopropyl)quinoline] | 9.92 |
| COc1ccc([C@H]2C[C@@H]2COc2nc(C)ncc2-c2ccc(O)nc2)nc1 [Example 69, 5-(4-(((1S,2S)-2-(5-methoxypyridin-2-yl)cyclopropyl)methoxy)-2-methylpyrimidin-5-yl)pyridin-2-ol] | 9.03 |
| Cc1ccc([C@H]2C[C@@H]2COc2nc(C)ncc2-c2ccc(C(C)(C)O)nc2C)nc1 [Example 138, 2-(6-Methyl-5-(2-methyl-4-(((1S,2S)-2-(5-methylpyridin-2-yl)cyclopropyl)methoxy)pyrimidin-5-yl)pyridin-2-yl)propan-2-ol] | 9.64 |
| Cc1ccc([C@H]2C[C@@H]2COc2nc(C)ncc2-c2ccc(C(C)O)nc2)nc1 (stereo partly drawn) [Example 148, 1-(5-(2-methyl-4-(((1S,2S)-2-(5-methylpyridin-2-yl)cyclopropyl)methoxy)pyrimidin-5-yl)pyridin-2-yl)ethanol] | 9.01 |

| Compound | pKi |
| --- | --- |
| Cc1ccc([C@H]2C[C@@H]2COc2nc(C)ncc2-c2c(F)cccc2F)nc1 [Example 6, 5-(2,6-difluorophenyl)-2-methyl-4-(((1S,2S)-2-(5-methylpyridin-2-yl)cyclopropyl)methoxy)pyrimidine] | 8.85 |
| CCc1ccc([C@H]2C[C@@H]2COc2nc(C)ncc2-c2cn(C)nc2C(C)O)nc1 (stereo partly drawn) [Example 162, 1-(4-(4-(((1S,2S)-2-(5-ethylpyridin-2-yl)cyclopropyl)methoxy)-2-methylpyrimidin-5-yl)-1-methyl-1H-pyrazol-3-yl)ethanol] | 9.89 |
| Cc1ccc([C@H]2C[C@@H]2COc2nc(C)ncc2-c2cc(O)ccn2)nc1 [Example 53, 2-(2-methyl-4-(((1S,2S)-2-(5-methylpyridin-2-yl)cyclopropyl)methoxy)pyrimidin-5-yl)pyridin-4-ol] | 7.59 |
| COc1ccc([C@H]2C[C@@H]2COc2nc(C)ncc2-c2ccc3[nH]ccc3c2)nc1 [Example 90, 5-(4-(((1S,2S)-2-(5-methoxypyridin-2-yl)cyclopropyl)methoxy)-2-methylpyrimidin-5-yl)-1H-indole] | 8.67 |
| Cc1ncc(-c2ccc(C(C)O)cc2)c(OC[C@H]2C[C@@H]2c2ccccn2)n1 (stereo partly drawn) [Example 121, 1-(4-(2-methyl-4-(((1S,2S)-2-(pyridin-2-yl)cyclopropyl)methoxy)pyrimidin-5-yl)phenyl)ethanol] | 8.30 |
| COc1ccc([C@H]2C[C@@H]2COc2nc(C)ncc2-c2cc(Cl)ncc2OC)nc1 [Example 111, 5-(2-chloro-5-methoxypyridin-4-yl)-4-(((1S,2S)-2-(5-methoxypyridin-2-yl)cyclopropyl)methoxy)-2-methylpyrimidine] | 9.10 |
| Cc1ccc([C@H]2C[C@@H]2COc2nc(C)ncc2-c2ccc(C(O)C(C)C)nc2)nc1 (stereo partly drawn) [Example 140, 2-methyl-1-(5-(2-methyl-4-(((1S,2S)-2-(5-methylpyridin-2-yl)cyclopropyl)methoxy)pyrimidin-5-yl)pyridin-2-yl)propan-1-ol] | 8.79 |
| COc1ccc([C@H]2C[C@@H]2COc2nc(C)ncc2C2(F)CCCCC2)nc1 [Example 211, 5-(1-fluorocyclohexyl)-4-(((1S,2S)-2-(5-methoxypyridin-2-yl)cyclopropyl)methoxy)-2-methylpyrimidine] | 7.71 |
| COc1ccc([C@H]2C[C@@H]2COc2nc(C)ncc2-c2ccc(-c3nn[nH]n3)nc2)nc1 [Example 229, 5-(6-(2H-tetrazol-5-yl)pyridin-3-yl)-4-(((1S,2S)-2-(5-methoxypyridin-2-yl)cyclopropyl)methoxy)-2-methylpyrimidine] | 9.89 |
| Cc1ccc([C@H]2C[C@@H]2COc2nc(C)ncc2-c2ccc(C(O)C(F)(F)F)nc2)nc1 (stereo partly drawn) [Example 145, 2,2,2-trifluoro-1-(5-(2-methyl-4-(((1S,2S)-2-(5-methylpyridin-2-yl)cyclopropyl)methoxy)pyrimidin-5-yl)pyridin-2-yl)ethanol] | 9.27 |
| COc1ccc([C@H]2C[C@@H]2COc2nc(C)ncc2-c2cnnn2C(F)F)nc1 [Example 246, 5-(3-(difluoromethyl)-3H-1,2,3-triazol-4-yl)-4-(((1S,2S)-2-(5-methoxypyridin-2-yl)cyclopropyl)methoxy)-2-methylpyrimidine] | 8.18 |
| COc1ccc([C@H]2C[C@@H]2COc2nc(C)ncc2C2CCC(=O)C2)nc1 (some centres unmarked) [Example 78] | 8.08 |
| Cc1ccc([C@H]2C[C@@H]2COc2nc(C)ncc2-c2cccc(OC(F)(F)F)c2)nc1 [Example 12, 2-methyl-4-(((1S,2S)-2-(5-methylpyridin-2-yl)cyclopropyl)methoxy)-5-(3-(trifluoromethoxy)phenyl)pyrimidine] | 8.95 |
| Cc1ncc(C2(O)CCC3(CC2)OCCO3)c(OC[C@H]2C[C@@H]2c2ccc3ccccc3n2)n1 [Example 206, 8-(2-methyl-4-(((1S,2S)-2-(quinolin-2-yl)cyclopropyl)methoxy)pyrimidin-5-yl)-1,4-dioxaspiro[4.5]decan-8-ol] | 8.20 |
| Cc1ncc(-c2cnc3ccccn23)c(OC[C@H]2C[C@@H]2c2ccc3ccccc3n2)n1 [Example 133, 2-((1S,2S)-2-((5-(imidazo[1,2-a]pyridin-3-yl)-2-methylpyrimidin-4-yloxy)methyl)cyclopropyl)quinoline] | 10.22 |
| Cc1ccc([C@H]2C[C@@H]2COc2nc(C)ncc2[C@H]2CC[C@](C)(O)CC2)nc1 [Example 213, (trans)1-Methyl-4-(2-methyl-4-(((1S,2S)-2-(5-methylpyridin-2-yl)cyclopropyl)methoxy)pyrimidin-5-yl)cyclohexanol] | 8.16 |
| COc1ccc([C@H]2C[C@@H]2COc2nc(C)ncc2-c2ccc(CO)nn2)nc1 [Example 101, (6-(4-(((1S,2S)-2-(5-methoxypyridin-2-yl)cyclopropyl)methoxy)-2-methylpyrimidin-5-yl)pyridazin-3-yl)methanol] | 7.92 |
